Drawing on ChEMBL document CHEMBL1135227, “Substituted 2-(R)-methyl piperazines as muscarinic M(2) selective ligands” (Bioorg Med Chem Lett, 2002), this text covers Ratio and Ki for 18 compounds.

Each structure is given as a SMILES string.

For assay [1], the target named is T1, Muscarinic acetylcholine receptor M1 (Homo sapiens) (UniProt P11229).
T1 sequence (whole entry): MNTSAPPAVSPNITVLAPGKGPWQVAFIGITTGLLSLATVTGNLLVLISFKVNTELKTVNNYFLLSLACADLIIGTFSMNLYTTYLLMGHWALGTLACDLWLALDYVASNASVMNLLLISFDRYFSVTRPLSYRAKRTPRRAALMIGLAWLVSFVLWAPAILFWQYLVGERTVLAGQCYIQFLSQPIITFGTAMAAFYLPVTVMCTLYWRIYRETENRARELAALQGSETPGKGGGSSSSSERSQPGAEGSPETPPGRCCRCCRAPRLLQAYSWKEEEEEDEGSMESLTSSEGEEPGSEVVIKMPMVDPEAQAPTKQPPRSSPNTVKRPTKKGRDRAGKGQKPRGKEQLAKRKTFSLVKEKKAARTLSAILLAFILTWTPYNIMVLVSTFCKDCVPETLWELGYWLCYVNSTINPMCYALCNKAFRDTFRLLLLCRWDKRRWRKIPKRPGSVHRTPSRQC
Put plainly: Ratio of binding affinities at human cloned Muscarinic acetylcholine receptor M1 and human cloned Muscarinic acetylcholine receptor M2.

The target in assay [2] is T2, Muscarinic acetylcholine receptor M2 (Homo sapiens, UniProt P08172).
T2 sequence (P08172 whole entry): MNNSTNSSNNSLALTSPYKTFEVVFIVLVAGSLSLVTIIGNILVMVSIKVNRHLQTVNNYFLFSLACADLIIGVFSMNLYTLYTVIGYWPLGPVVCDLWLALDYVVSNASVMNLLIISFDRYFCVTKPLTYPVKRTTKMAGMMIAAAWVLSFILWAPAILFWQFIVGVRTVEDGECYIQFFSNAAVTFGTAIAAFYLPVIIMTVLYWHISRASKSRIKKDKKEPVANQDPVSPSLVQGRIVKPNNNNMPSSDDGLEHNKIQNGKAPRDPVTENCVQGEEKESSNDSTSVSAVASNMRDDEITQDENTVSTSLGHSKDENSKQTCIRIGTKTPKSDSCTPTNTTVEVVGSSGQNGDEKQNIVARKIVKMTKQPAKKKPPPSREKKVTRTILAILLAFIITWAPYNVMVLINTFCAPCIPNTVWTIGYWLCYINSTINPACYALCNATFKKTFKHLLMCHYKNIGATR
Put plainly: Binding affinity against human cloned Muscarinic acetylcholine receptor M2.

Assay [3] has as its target T2, Muscarinic acetylcholine receptor M2. Put plainly: Compound was tested for its binding affinity against cloned human Muscarinic acetylcholine receptor M2.

As to `CCCS(=O)(=O)N1CCC(N2CCN([C@@H](C)c3ccc(S(=O)(=O)c4ccc5c(c4)OCO5)cc3)[C@H](C)C2)CC1`, the Ratio in assay [1] turned out to be 281. The compound also showed an inhibitory constant (Ki) in assay [2] of 0.2 nM.

Turning to `COc1ccc(S(=O)(=O)c2ccc(CN3CCN(C4CCCCC4)C[C@H]3C)cc2)cc1`, the Ratio in assay [1] worked out at 23. For the same compound, in assay [2], the Ki was found to be 0.3 nM.

Turning to `C[C@@H]1CN(C2CCN(C(=O)c3ccccc3)CC2)CCN1[C@@H](C)c1ccc(S(=O)(=O)c2ccc3c(c2)OCO3)cc1`, in assay [1], the Ratio stood at 32. In assay [2], this compound returned a Ki of 0.9 nM.

As for `C[C@@H]1CN(C2CCNCC2)CCN1[C@@H](C)c1ccc(S(=O)(=O)c2ccc3c(c2)OCO3)cc1`, the Ratio in assay [1] amounted to 4. For the same compound, the Ki in assay [2] is 9 nM.

As for `C[C@@H]1CN(C2CCCCC2)CCN1[C@@H](C)c1ccc(S(=O)(=O)c2ccc3c(c2)OCO3)cc1`, the Ratio in assay [1] came out at 61. For the same compound, the Ki in assay [2] came out at 0.03 nM.

For the compound `COc1ccc(S(=O)(=O)c2ccc(C(C#N)N3CCN(C4CCCCC4)C[C@@H]3C)cc2)cc1` (stereo not given in full), in assay [1], the Ratio is 5. The compound further displayed a Ki in assay [2] of 16 nM.

Consider `COc1ccc(S(=O)(=O)c2ccc([C@@H](C)N3CCN(C4CCCCC4)[C@@H](C)C3)cc2)cc1`, for which, in assay [1], the Ratio is 10. This compound returned a Ki in assay [2] of 0.04 nM.

For `CCCCS(=O)(=O)N1CCC(N2CCN([C@@H](C)c3ccc(S(=O)(=O)c4ccc5c(c4)OCO5)cc3)[C@H](C)C2)CC1`, the Ratio in assay [1] came out at 198. The same compound yielded a Ki in assay [2] of 0.2 nM.

With `CCCCC(=O)N1CCC(N2CCN([C@@H](C)c3ccc(S(=O)(=O)c4ccc5c(c4)OCO5)cc3)[C@H](C)C2)CC1`, the Ratio in assay [1] came to 15. For the same compound, the affinity in assay [2], expressed as Ki, was 1.3 nM.

Take `COc1ccc(S(=O)(=O)c2ccc([C@@H](C)N3CCN(C4CCCCC4)[C@H](C)C3)cc2)cc1`: the Ratio in assay [1] came to 10. Also, in assay [2], the Ki turned out to be 0.14 nM.

As for `COc1ccc(S(=O)(=O)c2ccc([C@@H](C)N3CCN(C4CCCCC4)C[C@H]3C)cc2)cc1`, the Ratio in assay [1] turned out to be 30. The compound also yielded a Ki in assay [2] of 0.15 nM.

Turning to `C[C@@H]1CN(C2CCCCC2)CCN1[C@H](C)c1ccc(S(=O)(=O)c2ccc3c(c2)OCO3)cc1`, the Ratio in assay [1] was 30. This compound also returned a Ki in assay [2] of 0.03 nM.

Consider `COc1ccc(S(=O)(=O)c2ccc([C@H](C)N3CCN(C4CCCCC4)C[C@H]3C)cc2)cc1`, for which the Ratio in assay [1] was 44. The same compound registered a Ki in assay [2] of 0.3 nM.

With `CCS(=O)(=O)N1CCC(N2CCN([C@@H](C)c3ccc(S(=O)(=O)c4ccc5c(c4)OCO5)cc3)[C@H](C)C2)CC1`, the Ratio in assay [1] worked out at 109. The Ki in assay [2] was 0.7 nM.

Consider `COc1ccc(S(=O)(=O)c2ccc(C(C#N)N3CCN(C4CCCCC4)C[C@H]3C)cc2)cc1` (stereo not given in full), for which the Ratio in assay [1] is 36. Affinity in assay [3] was put at a Ki of 0.16 nM.

As for `COc1ccc(S(=O)(=O)c2ccc(C(C)N3CCN(C4CCCCC4)CC3)cc2)cc1` (stereo not given), the Ratio in assay [1] was determined as 10.

Take `CCNC(=O)N1CCC(N2CCN([C@@H](C)c3ccc(S(=O)(=O)c4ccc5c(c4)OCO5)cc3)[C@H](C)C2)CC1`: the Ratio in assay [1] came to 10. In assay [2], affinity was put at a Ki of 2.5 nM.

Turning to `C[C@@H]1CN(C2CCN(S(=O)(=O)c3ccccc3)CC2)CCN1[C@@H](C)c1ccc(S(=O)(=O)c2ccc3c(c2)OCO3)cc1`, the Ratio in assay [1] amounted to 40. The compound further registered a Ki in assay [2] of 0.8 nM.
